# Measured values reported in patent EP3717657B1, “A SYSTEM FOR ASSESSING MICROBIAL SUSCEPTIBILITY TO ANTIBIOTIC AGENTS” (Ascilion AB, priority 2017, dated 2019).
# Experiments:
# [1] = system: Enterococcus faecalis (ATCC 29212); experiment: Antibiotic susceptibility by glucose consumption in culture medium, blood culture bottle inoculum (Example 1); type: cell-based; conditions: for Glucose concentration t=0: 0 minutes; for Glucose concentration t=60: 60 minutes; for Glucose concentration t=120: 120 minutes; for Glucose concentration t=180: 180 minutes; for dC/dT: rate of change in glucose concentration; for Glucose concentration t=240: 240 minutes;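 for dC/dT: rate calculated between the 60 and 180 min readings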
# Method: (§1) Strains of Escherichia coli (ATCC 25922), Enterococcus faecalis (ATCC 29212) and Staphylococcus aureus (ATCC 29213) were inoculated in blood culture bottles (SVA, Uppsala, Sweden) and cultivated according to the manufacturer's instructions until positive.
# (§2) Medium from each blood culture bottle was diluted 1:100 with cation adjusted Mueller-Hinton broth (SVA, Uppsala, Sweden) supplemented with glucose to a concentration of 1.0 mg/mL.
# (§3) Table 1: Concentrations of antibiotic agents are given in µg/mL.
# (§4) Glucose concentrations were measured at 0, 60, 120, 180, and 240 minutes using a WaveSense Jazz glucometer (AgaMatrix, Inc., Salem, NH, USA) with accompanying test strips.
# (§5) Susceptibility scores corresponding to MIC values were calculated as described above. A 80% threshold was applied, i.e. the lowest concentration of antibiotic that entailed a rate of change in glucose concentration that was equal to or less than 80% of the reference was selected as the Minimal Inhibitory Concentration. The rate of change was calculated between the measurements at 60 and 180 minutes.
# [2] = system: Escherichia coli (ATCC 25922); experiment: as above; type: cell-based; conditions: for Glucose concentration t=0: 0 minutes; for Glucose concentration t=60: 60 minutes; for Glucose concentration t=120: 120 minutes; for Glucose concentration t=180: 180 minutes; for dC/dT: rate of change in glucose concentration; for Glucose concentration t=240: 240 minutes;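 for dC/dT: rate calculated between the 60 and 180 min readings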
# Method: as §1, §2, §3, §4, §5
substance,measurement,setting,value
Gentamicin,MIC Measured,"[1]; E.faecalis, 80% threshold of rate of change vs reference, between 60 and 180 minutes, obtained in 4 hours",2 µg/mL
same,F=the rate of change in glucose concentration in relation to the reference,"[1]; [Ab] 0,5 µg/mL",148%
same,Glucose concentration t=0,"[1]; [Ab] 0,5 µg/mL",146
same,Glucose concentration t=60,"[1]; [Ab] 0,5 µg/mL",160
same,Glucose concentration t=120,"[1]; [Ab] 0,5 µg/mL",138
same,Glucose concentration t=180,"[1]; [Ab] 0,5 µg/mL",97
same,dC/dT,"[1]; [Ab] 0,5 µg/mL",53
same,F=the rate of change in glucose concentration in relation to the reference,"[1]; [Ab] 0,25 µg/mL",144%
same,Glucose concentration t=0,"[1]; [Ab] 0,25 µg/mL",142
same,Glucose concentration t=60,"[1]; [Ab] 0,25 µg/mL",156
same,Glucose concentration t=120,"[1]; [Ab] 0,25 µg/mL",143
same,Glucose concentration t=180,"[1]; [Ab] 0,25 µg/mL",87
same,dC/dT,"[1]; [Ab] 0,25 µg/mL",52
same,F=the rate of change in glucose concentration in relation to the reference,[1]; [Ab] 1 µg/mL,106%
same,Glucose concentration t=0,[1]; [Ab] 1 µg/mL,145
same,Glucose concentration t=60,[1]; [Ab] 1 µg/mL,150
same,Glucose concentration t=120,[1]; [Ab] 1 µg/mL,138
same,Glucose concentration t=180,[1]; [Ab] 1 µg/mL,100
same,Glucose concentration t=240,[1]; [Ab] 1 µg/mL,36
same,dC/dT,[1]; [Ab] 1 µg/mL,38
same,F=the rate of change in glucose concentration in relation to the reference,[1]; [Ab] 2 µg/mL,75%
same,Glucose concentration t=0,[1]; [Ab] 2 µg/mL,147
same,Glucose concentration t=60,[1]; [Ab] 2 µg/mL,156
same,Glucose concentration t=120,[1]; [Ab] 2 µg/mL,143
same,Glucose concentration t=180,[1]; [Ab] 2 µg/mL,110
same,Glucose concentration t=240,[1]; [Ab] 2 µg/mL,75
same,dC/dT,[1]; [Ab] 2 µg/mL,27
same,F=the rate of change in glucose concentration in relation to the reference,[1]; [Ab] 4 µg/mL,46%
same,Glucose concentration t=0,[1]; [Ab] 4 µg/mL,147
same,Glucose concentration t=60,[1]; [Ab] 4 µg/mL,154
same,Glucose concentration t=120,[1]; [Ab] 4 µg/mL,151
same,Glucose concentration t=180,[1]; [Ab] 4 µg/mL,118
same,Glucose concentration t=240,[1]; [Ab] 4 µg/mL,104
same,dC/dT,[1]; [Ab] 4 µg/mL,17
same,F=the rate of change in glucose concentration in relation to the reference,[1]; [Ab] 8 µg/mL,14%
same,Glucose concentration t=0,[1]; [Ab] 8 µg/mL,143
same,Glucose concentration t=60,[1]; [Ab] 8 µg/mL,155
same,Glucose concentration t=120,[1]; [Ab] 8 µg/mL,134
same,Glucose concentration t=180,[1]; [Ab] 8 µg/mL,136
same,Glucose concentration t=240,[1]; [Ab] 8 µg/mL,140
same,dC/dT,[1]; [Ab] 8 µg/mL,5
same,F=the rate of change in glucose concentration in relation to the reference,[1]; [Ab] 16 µg/mL,18%
same,Glucose concentration t=0,[1]; [Ab] 16 µg/mL,147
same,Glucose concentration t=60,[1]; [Ab] 16 µg/mL,160
same,Glucose concentration t=120,[1]; [Ab] 16 µg/mL,152
same,Glucose concentration t=180,[1]; [Ab] 16 µg/mL,155
same,dC/dT,[1]; [Ab] 16 µg/mL,6
same,F=the rate of change in glucose concentration in relation to the reference,[1]; [Ab] 32 µg/mL,3%
same,Glucose concentration t=0,[1]; [Ab] 32 µg/mL,143
same,Glucose concentration t=60,[1]; [Ab] 32 µg/mL,151
same,Glucose concentration t=180,[1]; [Ab] 32 µg/mL,142
same,Glucose concentration t=240,[1]; [Ab] 32 µg/mL,148
same,dC/dT,[1]; [Ab] 32 µg/mL,1
same,MIC Measured,"[2]; E.coli, 80% threshold of rate of change vs reference, between 60 and 180 minutes, obtained in 4 hours",1 µg/mL
same,F=the rate of change in glucose concentration in relation to the reference,"[2]; [Ab] 0,5 µg/mL",121%
same,Glucose concentration t=0,"[2]; [Ab] 0,5 µg/mL",144
same,Glucose concentration t=60,"[2]; [Ab] 0,5 µg/mL",147
same,Glucose concentration t=120,"[2]; [Ab] 0,5 µg/mL",147
same,Glucose concentration t=180,"[2]; [Ab] 0,5 µg/mL",72
same,dC/dT,"[2]; [Ab] 0,5 µg/mL",75
same,F=the rate of change in glucose concentration in relation to the reference,"[2]; [Ab] 0,25 µg/mL",139%
same,Glucose concentration t=0,"[2]; [Ab] 0,25 µg/mL",149
same,Glucose concentration t=60,"[2]; [Ab] 0,25 µg/mL",152
same,Glucose concentration t=120,"[2]; [Ab] 0,25 µg/mL",144
same,Glucose concentration t=180,"[2]; [Ab] 0,25 µg/mL",58
same,dC/dT,"[2]; [Ab] 0,25 µg/mL",86
same,F=the rate of change in glucose concentration in relation to the reference,[2]; [Ab] 1 µg/mL,77%
same,Glucose concentration t=0,[2]; [Ab] 1 µg/mL,144
same,Glucose concentration t=60,[2]; [Ab] 1 µg/mL,155
same,Glucose concentration t=120,[2]; [Ab] 1 µg/mL,148
same,Glucose concentration t=180,[2]; [Ab] 1 µg/mL,111
same,Glucose concentration t=240,[2]; [Ab] 1 µg/mL,53
same,dC/dT,[2]; [Ab] 1 µg/mL,48
same,F=the rate of change in glucose concentration in relation to the reference,[2]; [Ab] 2 µg/mL,9%
same,Glucose concentration t=60,[2]; [Ab] 2 µg/mL,161
same,Glucose concentration t=120,[2]; [Ab] 2 µg/mL,151
same,Glucose concentration t=180,[2]; [Ab] 2 µg/mL,143
same,Glucose concentration t=240,[2]; [Ab] 2 µg/mL,140
same,dC/dT,[2]; [Ab] 2 µg/mL,6
same,F=the rate of change in glucose concentration in relation to the reference,[2]; [Ab] 4 µg/mL,7%
same,Glucose concentration t=0,[2]; [Ab] 4 µg/mL,147
same,Glucose concentration t=60,[2]; [Ab] 4 µg/mL,163
same,Glucose concentration t=120,[2]; [Ab] 4 µg/mL,157
same,Glucose concentration t=180,[2]; [Ab] 4 µg/mL,148
same,Glucose concentration t=240,[2]; [Ab] 4 µg/mL,148
same,dC/dT,[2]; [Ab] 4 µg/mL,5
same,F=the rate of change in glucose concentration in relation to the reference,[2]; [Ab] 8 µg/mL,7%
same,Glucose concentration t=0,[2]; [Ab] 8 µg/mL,144
same,Glucose concentration t=60,[2]; [Ab] 8 µg/mL,156
same,Glucose concentration t=120,[2]; [Ab] 8 µg/mL,153
same,Glucose concentration t=180,[2]; [Ab] 8 µg/mL,150
same,Glucose concentration t=240,[2]; [Ab] 8 µg/mL,144
same,dC/dT,[2]; [Ab] 8 µg/mL,5
same,F=the rate of change in glucose concentration in relation to the reference,[2]; [Ab] 16 µg/mL,1%
same,Glucose concentration t=0,[2]; [Ab] 16 µg/mL,143
same,Glucose concentration t=60,[2]; [Ab] 16 µg/mL,155
same,Glucose concentration t=120,[2]; [Ab] 16 µg/mL,152
same,Glucose concentration t=180,[2]; [Ab] 16 µg/mL,149
same,Glucose concentration t=240,[2]; [Ab] 16 µg/mL,153
same,dC/dT,[2]; [Ab] 16 µg/mL,1
same,F=the rate of change in glucose concentration in relation to the reference,[2]; [Ab] 32 µg/mL,6%
same,Glucose concentration t=0,[2]; [Ab] 32 µg/mL,148
same,Glucose concentration t=60,[2]; [Ab] 32 µg/mL,158
same,Glucose concentration t=120,[2]; [Ab] 32 µg/mL,155
same,Glucose concentration t=180,[2]; [Ab] 32 µg/mL,150
same,Glucose concentration t=240,[2]; [Ab] 32 µg/mL,147
same,dC/dT,[2]; [Ab] 32 µg/mL,4
